Values of other authors in patent publication US8343565B2, “Method for producing grape extract with high ORAC value and grape extract so produced” (Ethical Naturals, Inc., priority 2008, dated 2013).

Conditions: exemplary ORAC scores listed in the background

| Molecule | ORAC scores for common vegetables and fruits |
| --- | --- |
| vitamin E | 1,200 μmol TE/g |
| O=C1O[C@H]([C@@H](O)CO)C(O)=C1O [vitamin C] | 5,000 μmol TE/g |
